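Interpolation was linear, between the two tested concentrations surrounding the appropriate level; five concentrations were tested over 48 hours in 96-well plates. GI50: concentration for 50% inhibition of growth.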 The source made the active and inactive calls. Rule as the data show it: active = GI50 up to about 1.1 µM and inactive = higher.
How the values were obtained:
Experiment in all cases: NCI-60 cell line screen, 48 h
786-0 = system: 786-0
A498 = system: A498
ACHN = system: ACHN
EKVX = system: EKVX
HCT-116 = system: HCT-116
HT-29 = system: HT-29
M14 = system: M14
MOLT-4 = system: MOLT-4
Malme-3M = system: Malme-3M
NCI-H226 = system: NCI-H226
NCI-H23 = system: NCI-H23
NCI-H522 = system: NCI-H522
OVCAR-3 = system: OVCAR-3
OVCAR-8 = system: OVCAR-8
RPMI-8226 = system: RPMI-8226
SK-MEL-2 = system: SK-MEL-2
UACC-62 = system: UACC-62

Measured: GI50

Cc1ccc(NC(=O)C2C(=O)N(c3ccc(C)c(C)c3)C(=O)/C2=N\NC(N)=O)cc1C (stereo not drawn)
inactive: 786-0 > 100 µM | A498 > 100 µM | ACHN > 100 µM | EKVX 55.8 µM | HCT-116 85.3 µM | HT-29 > 100 µM | M14 > 100 µM | MOLT-4 88.9 µM | Malme-3M > 100 µM | NCI-H226 > 100 µM | NCI-H23 42.8 µM | NCI-H522 55.1 µM | OVCAR-3 38.4 µM | OVCAR-8 62.2 µM | RPMI-8226 69.2 µM | SK-MEL-2 96.4 µM | UACC-62 94.6 µM

Cc1cc(Cl)ccc1NC(=O)CCCC(=O)C1CCCC1=O (stereo not drawn)
inactive: 786-0 > 100 µM | A498 > 100 µM | ACHN > 100 µM | EKVX > 100 µM | HCT-116 > 100 µM | HT-29 > 100 µM | M14 > 100 µM | MOLT-4 > 100 µM | Malme-3M > 100 µM | NCI-H226 > 100 µM | NCI-H23 > 100 µM | NCI-H522 > 100 µM | OVCAR-3 > 100 µM | OVCAR-8 > 100 µM | RPMI-8226 > 100 µM | SK-MEL-2 > 100 µM | UACC-62 > 100 µM

CC(=O)c1ccc(OCC(O)CO)cc1 (stereo not drawn)
inactive: 786-0 25.6 µM | A498 > 100 µM | ACHN > 100 µM | EKVX > 100 µM | HCT-116 17.3 µM | HT-29 61.4 µM | M14 > 100 µM | MOLT-4 > 100 µM | Malme-3M > 100 µM | NCI-H226 > 100 µM | NCI-H23 > 100 µM | NCI-H522 > 100 µM | OVCAR-3 > 100 µM | OVCAR-8 > 100 µM | RPMI-8226 62.7 µM | UACC-62 > 100 µM

CCn1nc(C)c2c1C(=O)NCC(=O)N2
inactive: A498 > 100 µM | ACHN > 100 µM | EKVX > 100 µM | HCT-116 > 100 µM | HT-29 > 100 µM | M14 > 100 µM | NCI-H23 > 100 µM | NCI-H522 > 100 µM | OVCAR-3 > 100 µM | OVCAR-8 > 100 µM | UACC-62 > 100 µM

O=c1c2cc([N+](=O)[O-])ccc2sc2ccsc12
inactive: 786-0 > 100 µM | A498 > 100 µM | ACHN > 100 µM | EKVX > 100 µM | HCT-116 > 100 µM | HT-29 > 100 µM | M14 > 100 µM | MOLT-4 > 100 µM | Malme-3M > 100 µM | NCI-H226 > 100 µM | NCI-H23 > 100 µM | NCI-H522 > 100 µM | OVCAR-3 > 100 µM | OVCAR-8 > 100 µM | RPMI-8226 > 100 µM | SK-MEL-2 > 100 µM | UACC-62 > 100 µM

Source: ChEMBL document CHEMBL1201862, “PubChem BioAssay data set” (2004)
